US4094908A, “Alpha-substituted benzhydrol derivatives” (Richter Gedeon Vegyeszeti Gyar Rt., priority 1973, dated 1978)

How the values were obtained:
[1] = tested on: hexobarbital oxidase; experiment: Enzyme inhibiting ability in vivo: change of hexobarbital oxidase activity (hexobarbital narcosis period); parameters: species or system Female Wistar rats; settings: in words, even 48 hours after administration
Procedure: (§1) Female Wistar rats, each weighing 80 to 100 g., were treated orally with a single 0.3 mM/kg. dosage of the active agent. 24 and 48 hours after the administration of the active agent, respectively, the animals were narcotized with 40 mg./kg. i.v. dosage of hexobarbital sodium, and the time elapsed until complete wakening was measured (Noordhock, J.: Eur. J. Pharmacol. 3, 242, 1968). The data were recorded, and the mean values, the standard errors, as well as the percentage increase with respect to the controls were calculated for each group. […] The hexobarbital concentration of the plasma, measured on the instant of wakening, was the same for both the treated and the control animals, thus the increase of narcosis period was not due to a certain central nervous interaction (Jori, A., Bianchatti, A., Presentini, P. E.: Biochem. Pharmacol. 19, 2687, 1970).

[2] = tested on: liver microsomal enzyme system; experiment: Promotion or inhibition of the liver microsomal enzyme system; type: in vivo; settings: in words
Source text: Tests per the methods described herein have shown compounds to be either effective in the promotion or inhibition of the liver microsomal enzyme system as follows: […]

[3] = tested on: hexobarbital oxidase; experiment: Enzyme-inducing potency: in vivo hexobarbital oxidase activity (duration of hexobarbital narcosis); parameters: species or system Female Wistar rats; settings: 24 hours before hexobarbital
Procedure: as §1, with “Female Wistar rats, each weighing 80 to 100 g., were treated orally with a single 0.3 mM/kg. dosage of the active agent.” left out
The enzyme-inducing potency of the new compounds was determined by several methods. One of these methods was the in vivo measurement of hexobarbital oxidase activity.
The decrease of narcosis period is due to the fact that the new compounds according to the invention accelerate the elimination of hexobarbital, a foreign substance, from the body. When administering the compound to be tested in a single dosage and measuring the duration of hexobarbital narcosis 24 hours after the administration, the following results are obtained: […]

[4] = tested on: bromosulfophthalein elimination; experiment: Bromosulfophthalein (BSP) concentration of the plasm after pre-treatment; type: in vivo; settings: 24 hours after pre-treatment; after i.v. bromsulfophthaleine
Procedure: The bromosulfophthalein (BSP) concentration of the plasm was determined 24 hours after pre-treatment with the compounds of the formula (I) and after the intravenous administration of bromsulfophthaleine, respectively (Varga, F., Fisher, E.: Acta Physiol. Hung. 36, 431, 1969).

[5] = tested on: UDP-glucoronyltransferase; experiment: UDP-glucuronyltransferase activity of liver tissues removed from pre-treated animals (bilirubin conjugation); type: in vivo; settings: liver tissues of pre-treated animals incubated with bilirubin
Procedure: In an in vivo test, liver tissues removed from animals pre-treated with compounds of the formula (I) were incubated in the presence of bilirubin, in order to determine the UDP-glucoronyltransferase activity of the liver tissues (Adlard, B. P. F., Lester, R. G., Lathe, G. H.: Biochem Pharmacol. 18, 59, 1969).

[6] = Toxicity: perished animals/tested animals; type: in vivo
Source text: Despite its disadvantageous properties, phenobarbital is widely used in the treatment of neonatal jaundice. In order to enable a better comparison, Table 8 indicates the respective dosages in which phenobarbital causes lethal respiration paralysis, while the compounds according to the invention are completely innocuous.

[7] = tested on: central nervous system; type: in vivo, mice and rats; settings: in words; in contrast with phenobarbital
Source text: The central nervous activities of the compounds according to the invention were examined on mice and rats with the following methods: electroshock (Swinyard, E. A., Brown, W. C., Goodman, L. S.: J. Pharmacol. Exp. Ther. 106, 319, 1952), metrazol spasm (Everett, G. M., Richards, R. K.: J. Pharmacol. Exp. Ther. 81, 402: 1944), thiosemicarbezide spasm (Da Venzo, J. P. Greig, M. E., Cormin, M. A.: Amer. J. Physiol. 201, 833: 1961), strychnine spasm (Kerley, T. L., Richards, A. G., Begley, R. W., Abreu, B. B. Wesver, L. C.: J. Pharmacol. Exp. Ther. 132, 360: 1961), nicotine spasm (Stone, C. A., Mecklenburg, K. L., Torhans, M. L.: Arch. Int. Pharmacodyn. 117, 419: 1958), rotarod test (Kinnard, W. C., Carr, C. J.: J. Pharmacol. Expt. Ther. 121, 3, 54: 1957), physistigmine lethality preventing effect (Nose, T., Kojima, M.: Europ. J. Pharmacol. 10, 83: 1970), yohimbine potentiation effect (Quinton, R. M.: Brit. J. Pharmacol. 21, 51: 1963), and analgesic activity (Bianchi, G., Franceschini, J.: Brit. J. Pharm. Chemother. 9, 280: 1954). As reference substance, phenobarbital was used. […]

[8] = tested on: liver microsomal enzyme system; experiment: Biological halving period of hexobarbital and hexobarbital concentration at wakening; type: in vivo; settings: pre-treated 24 hours prior to hexobarbital; female rats 150 g
[9] = tested on: meprobamate elimination; experiment: Biological halving period of meprobamate after pre-treatment; type: in vivo; settings: 24 hours after pre-treatment
Procedure: The biological halving period of meprobamate was determined 24 hours after pre-treatment with the compounds of the formula (I) (Ludwig, B. J., Hoffman, A. J.; Arch. Biochem. 72, 234, 1957).

[10] = tested on: bilirubin elimination; experiment: Bilirubin elimination under in vivo conditions; parameters: species or system rats
Procedure: When examining the bilirubin elimination under in vivo conditions on rats pre-treated with E 15 or phenobarbital, respectively, and challenged intravenously with a dosage of 30 mg./kg. of free bilirubin, the following biological halving periods were determined (Krueger, H., Higginson, J.: Proc. Soc. Exp. Biol. Med. 107, 43, 1961): […]

Compound | Inhibition of the microsomal enzyme / xenobiotic elimination, duration [1] | Potency among the enzyme inducing or inhibiting compounds [2] | Sleeping period ± standard error ([3]; 5 mg./kg. single dosage) | Sleeping period ± standard error ([3]; 10 mg./kg. single dosage) | Sleeping period ± standard error ([3]; 20 mg./kg. single dosage) | Sleeping period ± standard error ([3]; 40 mg./kg. single dosage) | BSP concentration of the plasm [4] | Conjugated bilirubine [5] | Perished animals/tested animals ([6]; 40 mg./kg) | Perished animals/tested animals ([6]; 80 mg./kg) | Perished animals/tested animals ([6]; 160 mg./kg) | Perished animals/tested animals ([6]; 320 mg./kg) | Perished animals/tested animals ([6]; 640 mg./kg) | Central nervous effects [7] | Effect on the liver microsomal enzyme system (inducing or inhibiting) [2] | Duration and strength of inducing effect compared with phenobarbital [2] | further results
CCN(CC)CCOc1ccc(C(O)(CC)c2ccccc2)cc1 (stereo not drawn) [E 17, 4-(β-diethylaminoethoxy)-α-ethyl-benzhydrol] | inhibit the elimination of xenobiotic agents and the inactivation thereof in the liver for a long time | particularly potent |  |  |  |  |  |  |  |  |  |  |  |  |  |  | Inhibition of the microsomal enzyme / xenobiotic elimination, duration ([1]; listed as 4-(β-diethylaminoethoxy)-α-ethyl-benzhydrol): long-lasting inhibition, the degree of which remains significant even 48 hours after administration
CCC(O)(c1ccccc1)c1cccc(Cl)c1 (stereo not drawn) [E 9, 3-chloro-α-ethyl-benzhydrol] |  |  | 21.7 ± 2.0 | 15.2 ± 1.4 | 13.6 ± 1.4 | 12.4 ± 1.2 | 7.6 μg./mg. plasm | 36.7 ± 3.2 µg/g/h | 0/10 | 0/10 | 0/10 | 0/10 | 0/10 | no central nervous effects | particularly advantageous inducing effect | reaches that of phenobarbital | 
C=CC(O)(c1ccccc1)c1ccc(OC)cc1OC (stereo not drawn) [2,4-dimethoxy-α-vinylbenzhydrol, 2,4-dimethoxy-α-vinyl-benzhydrol] | long-lasting inhibition, the degree of which remains significant even 48 hours after administration | particularly potent |  |  |  |  |  |  |  |  |  |  |  |  |  |  | 
CCC(O)(c1ccccc1)c1cccc(C(F)(F)F)c1 (stereo not drawn) [E 15, 3-Trifluoromethyl-α-ethyl-benzhydrol] |  | particularly potent | 18.0 ± 1.7 | 14.2 ± 1.5 | 10.6 ± 1.2 | 8.8 ± 0.9 | 5.0 μg./mg. plasm | 37.4 ± 3.6 µg/g/h | 0/10 | 0/10 | 0/10 | 0/10 | 0/10 | no central nervous effects | particularly advantageous inducing effect | reaches that of phenobarbital | t1/2 (biological halving period of hexobarbital) [8]: 23 min.; t1/2 (biological halving period of meprobamate) [9]: 2.1 hours; t1/2 (biological halving period of bilirubin) ([10]; pre-treated rats, 30 mg./kg. free bilirubin i.v.): 7 min; Acceleration of bilirubin elimination compared with phenobarbital ([10]; rats, in words): about twice stronger than that of phenobarbital
CCC(O)(c1ccccc1)c1ccccc1OC (stereo not drawn) [E 16, 2-methoxy-α-ethyl-benzhydrol] | inhibit the elimination of xenobiotic agents and the inactivation thereof in the liver for a long time | particularly potent |  |  |  |  |  |  |  |  |  |  |  |  |  |  | Inhibition of the microsomal enzyme / xenobiotic elimination, duration ([1]; listed as 2-methoxy-α-ethylbenzhydrol): long-lasting inhibition, the degree of which remains significant even 48 hours after administration
CCC(O)(c1ccccc1)c1ccc(Cl)cc1Cl (stereo not drawn) [E 11, 2,4-dichloro-α-ethyl-benzhydrol] |  |  | 22.0 ± 2.1 | 16.4 ± 1.6 | 15.0 ± 1.4 | 13.0 ± 1.2 | 5.4 μg./mg. plasm | 35.7 ± 2.8 µg/g/h | 0/10 | 0/10 | 0/10 | 0/10 | 0/10 | no central nervous effects | particularly advantageous inducing effect | reaches that of phenobarbital | t1/2 (biological halving period of hexobarbital) [8]: 26 min.; t1/2 (biological halving period of meprobamate) [9]: 2.8 hours
CCC(O)(c1ccccc1)c1cc(C)ccc1C (stereo not drawn) [E 20, 2,5-dimethyl-α-ethyl-benzhydrol] |  | particularly potent | 23.8 ± 1.9 | 18.76 ± 1.9 |  | 13.0 ± 1.2 |  | 35.1 ± 2.6 µg/g/h |  |  |  |  |  | no central nervous effects | particularly advantageous inducing effect | reaches that of phenobarbital | 
C=CC(O)(c1ccccc1)c1ccccc1F (stereo not drawn) [2-fluoro-α-vinyl-benzhydrol, 2-Fluoro-α-vinyl-benzhydrol] |  |  |  |  |  |  |  |  |  |  |  |  |  | no central nervous effects | particularly advantageous inducing effect | reaches that of phenobarbital | 
C=CC(O)(c1ccccc1)c1ccc(Cl)c(Cl)c1 (stereo not drawn) [3,4-dichloro-α-vinylbenzhydrol, 3,4-dichloro-α-vinyl-benzhydrol] |  | particularly potent |  |  |  |  |  |  |  |  |  |  |  |  |  |  | 
